From patent US9375006B2, “5- halogenopyrazole benzofuranyl carboxamides” (BAYER CROPSCIENCE AG, priority 2012, dated 2016) come the findings set out here.

Series [1] is described as follows: logP by HPLC on reversed phase columns (EEC directive 79/831 Annex V.A8). Type of series: physicochemical. The settings on record: method [a]: LC-MS at pH 2.7, 0.1% formic acid in water / acetonitrile; for chromatographic logP: reversed phase HPLC columns. The method, then: Measurement of log P values was performed according EEC directive 79/831 Annex V.A8 by HPLC (High Performance Liquid Chromatography) on reversed phase columns with the following methods: ^[a] Measurement of LC-MS was done at pH 2.7 with 0.1% formic acid in water and with acetonitrile (contains 0.1% formic acid) as eluent with a linear gradient from 10% acetonitrile to 95% acetonitrile. ^[b] Measurement with LC-MS was done at pH 7.8 with 0.001 molar ammonium hydrogen carbonate solution in water as eluent with a linear gradient from 10% acetonitrile to 95% acetonitrile.

Another series has as its system Puccinia recondita. Put plainly: In vivo preventive test on Puccinia recondita (brown rust on wheat). The settings on record: wheat plants, preventive spray, grading 12 days after contamination. The method, then: (§1) The active ingredients tested are prepared by homogenization in a mixture of acetone/tween/DMSO, and then diluted with water to obtain the desired active material concentration.
Wheat plants (“Scipion” variety), sown in starter cups on a 50/50 peat soil-pozzolana substrate and grown at 22° C., are treated at the 1-leaf stage (10 cm height) by spraying with the active ingredient prepared as described above. Plants, used as controls, are treated with the mixture of acetone/tween/DMSO/water not containing the active material.
After 24 hours, the plants are contaminated by spraying the leaves with an aqueous suspension of Puccinia […] spores (100 000 spores per ml). The spores are collected from an infected plant and are suspended in water containing 2.5 ml/l of Tween 80 at 10%. The contaminated wheat plants are incubated for 24 hours at 20° C. and at 100% relative humidity, and then for 10 days at 20° C. and at 70-80% relative humidity.
(§2) Grading (% of efficacy) is carried out 12 days after the contamination, in comparison with the control plants.

For a further series, the system named is Uromyces appendiculatus. Put plainly: In vivo preventive test on Uromyces appendiculatus (bean rust). The settings on record: bean plants, preventive spray, grading 11 days after contamination. The method, then: as §1
Bean plants (“Saxa” variety), sown in starter cups on a 50/50 peat soil-pozzolana substrate and grown at 24° C., are treated at the 2-leaf stage (9 cm height) by spraying with the active ingredient prepared as described above. Plants, used as controls, are treated with the mixture of acetone/tween/DMSO/water not containing the active material.
After 24 hours, the plants are contaminated by spraying the leaves with an aqueous suspension of Uromyces appendiculatus spores (150 000 spores per ml). The spores are collected from infected plants and are suspended in water containing 2.5 ml/l of Tween 80 at 10%. The contaminated bean plants are incubated for 24 hours at 20° C. and at 100% relative humidity, and then for 10 days at 20° C. and at 70-80% relative humidity.
Grading (% of efficacy) is carried out 11 days after the contamination, in comparison with the control plants.

The subject of the next series is Alternaria brassicae. Put plainly: In vivo preventive test on Alternaria brassicae (leaf spot on radish). The following applies: 100 ppm, radish plants, preventive spray, grading 6 days after contamination. The protocol:
Radish plants (“Pernod Clair” variety), sown in starter cups on a 50/50 peat soil-pozzolana substrate and grown at 17° C., are treated at the cotyledon stage by spraying with the active ingredient prepared as described above. Plants, used as controls, are treated with the mixture of acetone/tween/DMSO/water not containing the active material. After 24 hours, the plants are contaminated by spraying the cotyledons with an aqueous suspension of Alternaria brassicae spores (50 000 spores per ml). The spores are collected from a 15-day-old culture. The contaminated radish plants are incubated at 20° C. and at 100% relative humidity. Grading (% of efficacy) is carried out 6 days after the contamination, in comparison with the control plants.

The test system of a further series is Botrytis cinerea. The series can be described thus: In vivo preventive test on Botrytis cinerea (grey mould), gherkin plants. The settings on record: 100 ppm, preventive spray, grading 4 to 5 days after contamination. The method, then: (§3) The active ingredients tested are prepared by homogenization in a mixture of acetone/tween/DMSO and then diluted with water to obtain the desired active material concentration.
(§4) Gherkin plants (“Vert petit de Paris” variety), sown in starter cups on a 50/50 peat soil-pozzolana substrate and grown at 24° C., are treated at the Z11 cotyledon stage by spraying with the active ingredient prepared as described above. Plants, used as controls, are treated with the mixture of acetone/tween/DMSO/water not containing the active material.
After 24 hours, the plants are contaminated by spraying the cotyledons with an aqueous suspension of cryopreserved Botrytis cinerea spores (50 000 spores per ml). The spores are suspended in a nutrient solution composed of 10 g/L of PDB, 50 g/L of D-Fructose, 2 g/L of NH4NO3 and 1 g/L of KH2PO4. The contaminated gherkin plants are incubated at 17° C. and at 90% relative humidity.
Grading (% of efficacy) is carried out 4 to 5 days after the contamination, in comparison with the control plants.

The subject of a further series is Pyrenophora teres. Put plainly: In vivo preventive test on Pyrenophora teres (net blotch on barley). The following applies: 100 ppm, barley plants, preventive spray, grading 14 days after contamination. The protocol:
Barley plants (“Plaisant” variety), sown in starter cups on a 50/50 peat soil-pozzolana substrate and grown at 22° C., are treated at the 1-leaf stage (10 cm height) by spraying with the active ingredient prepared as described above. Plants, used as controls, are treated with the mixture of acetone/tween/DMSO/water not containing the active material. After 24 hours, the plants are contaminated by spraying the leaves with an aqueous suspension of Pyrenophora teres spores (12 000 spores per ml). The spores are collected from a 12-day-old culture. The contaminated barley plants are incubated for 48 hours at 20° C. and at 100% relative humidity, and then for 12 days at 20° C. at 70-80% relative humidity. Grading (% of efficacy) is carried out 14 days after the contamination, in comparison with the control plants.

The subject of another series is Sphaerotheca fuliginea. Put plainly: In vivo preventive test on Sphaerotheca fuliginea (powdery mildew on cucurbits). The settings on record: 100 ppm, gherkin plants, preventive spray, grading 12 days after contamination. The protocol:
as §3, §4
After 24 hours, the plants are contaminated by spraying the cotyledons with an aqueous suspension of Sphaerotheca fuliginea spores (100 000 spores per ml). The spores are collected from infected plants. The contaminated gherkin plants are incubated at about 20° C. and at 70-80% relative humidity.
as §2

`Cn1nc(C(F)F)c(C(=O)Nc2cccc3c2COC3(C)C)c1F` [Example 3]: in series [1], the logP was 2.35[a]. The Eff. % in the series on Puccinia recondita (500 ppm) and in the series with Uromyces appendiculatus (500 ppm) was 100% in each case.
As for `Cn1nc(C(F)F)c(C(=O)Nc2cccc3c2COC3(C)C)c1Cl` [Example 4], the logP in series [1] is 2.55[a]. Moreover, the Eff. % in the series with Puccinia recondita (500 ppm) and in the series on Uromyces appendiculatus (500 ppm) was 100% throughout.
For the molecule `CC1OC(C)(C)c2cccc(NC(=O)c3c(C(F)F)nn(C)c3Br)c21` (stereo not drawn) [Example 5], in series [1], the logP was 2.64[a]. For the same molecule, the results for the Eff. % in the series with Puccinia recondita (500 ppm) and with Uromyces appendiculatus (500 ppm) were 97% and 100%, respectively.
Taken in the same sequence, the figures for `Cn1cc(C(=O)Nc2cccc3c2COC3(C)C)c(C(F)F)n1` [Example 7] were 2.1[a], 98% and 100%.
On the same counts, the results for `CC1OC(C)(C)c2cccc(NC(=O)c3cn(C)nc3C(F)F)c21` (stereo not drawn) [Example 10] are 2.15[a], 94% and 95%.
Take `CC(C)C1OC(C)(C)c2cccc(NC(=O)c3c(C(F)F)nn(C)c3Cl)c21` (stereo not drawn) [Example 14]: the logP in series [1] is 3.33[a]. Moreover, the Eff. % was determined as 75% in the series on Alternaria brassicae; 93% with Botrytis cinerea; 92% in the series on Pyrenophora teres; 98% in the series with Puccinia recondita (100 ppm); 100% in the series on Sphaerotheca fuliginea; 100% with Uromyces appendiculatus (100 ppm).
For the molecule `CCC1OC(C)(C)c2cccc(NC(=O)c3c(C(F)F)nn(C)c3Cl)c21` (stereo not drawn) [Example 15], the logP in series [1] is 2.94[a]. The Eff. % is reported as 75% in the series with Alternaria brassicae; 92% with Pyrenophora teres; 100% in the series with Puccinia recondita (100 ppm); 98% with Sphaerotheca fuliginea; 100% in the series with Uromyces appendiculatus (100 ppm).
Turning to `CCC1OC(C)(C)c2cccc(NC(=O)c3cn(C)nc3C(F)F)c21` (stereo not drawn) [Example 16], the Eff. % came out at 83% in the series with Botrytis cinerea; 83% in the series on Pyrenophora teres; 98% in the series with Puccinia recondita (100 ppm); 98% in the series on Sphaerotheca fuliginea; 100% in the series on Uromyces appendiculatus (100 ppm).
Consider `CC(C)C1OC(C)(C)c2cccc(NC(=O)c3c(C(F)F)nn(C)c3Br)c21` (stereo not drawn) [Example 17], for which the logP in series [1] is 3.33[a]. Moreover, the Eff. % in the series with Pyrenophora teres was determined as 83%; in the series on Puccinia recondita (100 ppm) it was 94%; in the series with Uromyces appendiculatus (100 ppm) it was 100%.
Consider `CCC1OC(CC)(CC)c2cccc(NC(=O)c3c(C(F)F)nn(C)c3Cl)c21` (stereo not drawn) [Example 18], for which the logP in series [1] is 3.87[a]. The Eff. % amounted to 75% with Alternaria brassicae; 83% in the series on Pyrenophora teres; 98% with Puccinia recondita (100 ppm); 100% with Sphaerotheca fuliginea; 100% in the series on Uromyces appendiculatus (100 ppm).
As to `CCC1OC(CC)(CC)c2cccc(NC(=O)c3c(C(F)F)nn(C)c3Br)c21` (stereo not drawn) [Example 19], in series [1], the logP was 3.87[a]. Moreover, the Eff. % is on record as 75% with Alternaria brassicae, 98% in the series on Puccinia recondita (100 ppm), 83% with Sphaerotheca fuliginea and 100% in the series on Uromyces appendiculatus (100 ppm).
As for `CCC1OCc2cccc(NC(=O)c3c(C(F)F)nn(C)c3Br)c21` (stereo not drawn) [Example 20], the logP in series [1] was 2.96[a]. The Eff. % came to 98% in the series on Puccinia recondita (100 ppm) and 100% in the series with Uromyces appendiculatus (100 ppm).
Consider `CCC1OC(C)(C)c2cccc(NC(=O)c3c(C(F)F)nn(C)c3F)c21` (stereo not drawn) [Example 21], for which the logP in series [1] is 2.76[a]. Also, the Eff. % amounted to 93% in the series with Botrytis cinerea, 98% with Puccinia recondita (100 ppm), 98% with Sphaerotheca fuliginea and 100% in the series on Uromyces appendiculatus (100 ppm).
In series [1], `CC(C)C1OC(C)(C)c2cccc(NC(=O)c3c(C(F)F)nn(C)c3F)c21` (stereo not drawn) [Example 22, 3-(difluoromethyl)-5-fluoro-N-(3-isopropyl-1,1-dimethyl-1,3-dihydro-2-benzofuran-4-yl)-1-methyl-1H-pyrazole-4-carboxamide] returned a chromatographic logP of 3.11. In addition, the Eff. % is 98% with Botrytis cinerea; 97% with Pyrenophora teres; 98% in the series on Puccinia recondita (100 ppm); 100% in the series on Sphaerotheca fuliginea; 99% with Uromyces appendiculatus (100 ppm).
As to `CCC1OC(CC)(CC)c2cccc(NC(=O)c3cn(C)nc3C(F)F)c21` (stereo not drawn) [Example 23], in series [1], the logP is 3.26[a]. The Eff. % was 88% in the series with Alternaria brassicae; 97% in the series on Botrytis cinerea; 92% with Pyrenophora teres; 98% in the series on Puccinia recondita (100 ppm); 100% with Sphaerotheca fuliginea; 100% in the series with Uromyces appendiculatus (100 ppm).
Take `CCC1OC(CC)(CC)c2cccc(NC(=O)c3c(C(F)F)nn(C)c3F)c21` (stereo not drawn) [Example 24]: the logP in series [1] is 3.65[a]. Also, the Eff. % with Alternaria brassicae stood at 75%; in the series with Botrytis cinerea it was 87%; in the series with Pyrenophora teres, 83%; in the series with Puccinia recondita (100 ppm) it was 98%; with Sphaerotheca fuliginea it was 100%; in the series on Uromyces appendiculatus (100 ppm), 100%.
Regarding `CC(C)C1OC(C)(C)c2cccc(NC(=O)c3cn(C)nc3C(F)F)c21` (stereo not drawn) [Example 25], the logP in series [1] was 2.76[a]. Moreover, the Eff. % with Alternaria brassicae amounted to 75%; in the series with Botrytis cinerea, 98%; with Pyrenophora teres it was 83%; in the series with Puccinia recondita (100 ppm), 98%; with Sphaerotheca fuliginea, 100%; with Uromyces appendiculatus (100 ppm) it was 99%.
Turning to `CCC1OC(CC)(CC)c2cccc(NC(=S)c3cn(C)nc3C(F)F)c21` (stereo not drawn) [Example 26, 3-(difluoromethyl)-1-methyl-N-(1,1,3-triethyl-1,3-dihydro-2-benzofuran-4-yl)-1H-pyrazole-4-carbothioamide], in series [1], the chromatographic logP came out at 3.76.

In general, chromatographic logP refers to a lipophilicity value derived from retention on a column. Low readings indicate a more hydrophilic compound, high ones a more lipophilic compound.
